Experimental data from patent US4211764A, “Gastric secretion stimulation with 2-amino-5-(2-aminoethyl)-1,3,4-thiadiozole” (priority 1978, dated 1980).
Counter-ions that a name gives are not always drawn. Like-named read-outs stand apart in the source and are kept apart here.

How the values were obtained:
H2 -ceptors = H2 -ceptors (Canis lupus familiaris, UniProt P17124); assay: Gastric secretion in dogs with gastric fistula, intramuscular injection; details: animal (dog)
Method: (§1) Chronic experiments were performed on male dogs weighing 20 to 25 kg and having a gastric fistula; prior to experiments, the animals were starved for 18 hours.
The gastric juice was analyzed for titratable acidity and proteolytic activity. The hydrochloric acid output was calculated in milliequivalents (mEq) and that of pepsin in milligrams.

dog's stomach = assay: Gastric secretion in dogs, administration per os; assay type: in vivo; details: thidazine 100 mg per head (parenterally and per os), histamine 10 and 20 mg, histalog 50 and 100 mg
Method: as §1

arterial pressure [1] = assay: Arterial pressure in anesthetized cats; details: in vivo, iv, 0.1 mg/kg
Method: These experiments were performed on 11 cats weighing 2.5 to 4.0 kg and anesthetized with urethane-chlorazol mixture containing 60 mg/kg of chlorazol and 600 mg/kg of urethane. The arterial pressure was measured in the common carotid artery with the aid of a mercury pressure gauge.

[2] = tested on: gastric secretion of patients; assay: Clinical comparison of thidazine with simple histamine test; assay type: in vivo, human; details: 20 patients; thidazine 1.5 mg/kg parenteral, histamine 0.01 mg/kg; >0.05
From the text: (§2) Special attention was paid to side effects and the reproductibility of the secretory response after repeated administrations of the drug.

total acidity = assay: Clinical reproducibility of secretory response (total acidity); assay type: in vivo, human; details: 0.01 mg/kg hypodermic
From the text: as §2
Reproducibility of Secretory Response to Introduction
of Thidazine and Histamine with Reference to Total
Acidity Values (each group of patients includes 10 persons)
^(x) Percentage of difference is the relationship of the difference
between the total acidity values registered in the first and second tests
of a patient to the greater of these values.

[3] = tested on: gastric secretion of patients with duodenal ulceration; assay: Clinical comparison in patients with duodenal ulceration; assay type: in vivo, human
From the text: as §2
Histamine and Pentagastrin Upon Main Gastric Secretion
Characteristics of Patients With Duodenal Ulceration

H2 -receptors [4] = biological target: H2 -receptors (Rattus norvegicus, UniProt P25102); details: uterus horn
H2 -receptors (Rattus norvegicus, UniProt P25102), sequence (P25102 whole entry): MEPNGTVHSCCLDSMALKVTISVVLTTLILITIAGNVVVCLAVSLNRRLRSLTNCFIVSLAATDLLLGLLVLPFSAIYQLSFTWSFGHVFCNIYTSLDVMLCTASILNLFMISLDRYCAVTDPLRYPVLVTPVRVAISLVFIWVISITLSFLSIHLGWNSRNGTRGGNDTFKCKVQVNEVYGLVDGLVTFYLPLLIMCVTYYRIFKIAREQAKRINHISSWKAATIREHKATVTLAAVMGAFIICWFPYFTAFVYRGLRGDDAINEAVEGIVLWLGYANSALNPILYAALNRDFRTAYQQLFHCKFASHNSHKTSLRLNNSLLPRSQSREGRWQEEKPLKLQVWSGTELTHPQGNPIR
Method: Contractions of an isolated horn of uterus of a rat due to the effect of acetylcholine in a concentration of 1.10^-6 M were recorded on a paper tape.

gastric secretion [5] = details: cited from earlier work; for secretory effect per os: introduced per os, clinical conditions, inactivated by the liver and enzymes
[6] = cited from earlier work
arterial pressure [7] = assay: Arterial pressure in rabbits; details: intravenous, thidazine 0.1 mg/kg, equimolar doses of histamine and histalog
Method: In a series of experiments of 18 rabbits weighing 2.5 to 3.5 kg, each having the common carotid artery in a cutaneous flap, the preparations were injected intravenously.

[8] = Physical properties of the dichlorohydrate; assay type: physicochemical
From the text: The dichlorohydrate of this compound is white-yellowish crystalline powder. […] Solution of this compound in 0.01 M of hydrochloric acid at a concentration of 10^-4 M has a characteristic absorption spectrum in the UV range with a maximum of 245±±1 nanometers.

gastric secretion [9] = assay type: in vivo, human; details: hypodermic or intramuscular
From the text: as §2
The clinical investigation also helped to determine effective doses of the proposed preparation for submaximum and maximum tests and different forms of administration.

H1 -receptors = biological target: T1, H1 -receptors (Cavia porcellus, UniProt P31389); assay: Contraction of isolated ileum; details: guinea pig ileum; read-out: pD2 value in relation to H1 -receptors (converted)
T1 construct: from tissue; host or cells: isolated guinea pig ileum
T1 sequence (P31389 whole entry): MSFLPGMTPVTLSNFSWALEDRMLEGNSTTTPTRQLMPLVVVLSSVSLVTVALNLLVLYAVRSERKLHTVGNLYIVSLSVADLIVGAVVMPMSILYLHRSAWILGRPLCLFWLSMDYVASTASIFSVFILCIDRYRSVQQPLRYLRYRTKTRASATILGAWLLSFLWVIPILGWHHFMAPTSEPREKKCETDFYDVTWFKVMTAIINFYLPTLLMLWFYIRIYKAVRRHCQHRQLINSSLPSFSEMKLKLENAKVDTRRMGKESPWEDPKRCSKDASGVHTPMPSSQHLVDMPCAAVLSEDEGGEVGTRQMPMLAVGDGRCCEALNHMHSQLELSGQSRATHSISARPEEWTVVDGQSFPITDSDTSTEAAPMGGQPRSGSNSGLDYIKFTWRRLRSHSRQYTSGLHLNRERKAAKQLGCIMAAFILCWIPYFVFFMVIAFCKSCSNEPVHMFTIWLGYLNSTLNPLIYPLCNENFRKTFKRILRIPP

H2 -receptors [10] = biological target: T2, H2 -receptors (Cavia porcellus, UniProt P47747); assay: Heart rate of isolated auricles; details: isolated guinea pig auricles; read-out: pD2 value, H2 -receptors (heart rate) (converted)
T2 construct: from tissue; host or cells: isolated guinea pig auricles (atria)
T2 sequence (P47747 whole entry): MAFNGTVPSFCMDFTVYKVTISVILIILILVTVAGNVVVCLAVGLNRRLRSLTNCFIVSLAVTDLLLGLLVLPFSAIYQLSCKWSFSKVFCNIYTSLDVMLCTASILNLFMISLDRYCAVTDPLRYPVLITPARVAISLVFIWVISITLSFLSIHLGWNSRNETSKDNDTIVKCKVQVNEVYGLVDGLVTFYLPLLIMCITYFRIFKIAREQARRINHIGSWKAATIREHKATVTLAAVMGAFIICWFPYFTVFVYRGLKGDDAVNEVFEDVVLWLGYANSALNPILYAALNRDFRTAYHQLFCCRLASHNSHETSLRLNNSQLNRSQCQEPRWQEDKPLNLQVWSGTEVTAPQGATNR
Method: Changes in the heart rate were measured, dose-response curves were plotted, and pD2 values were calculated.

[11] = tested on: cardiovascular system (hypotension); details: relative to histamine; cited from earlier work
[12] = tested on: gastric secretion of patients of middle age group; assay: Clinical test: effects of maximum doses upon gastric secretion of patients; assay type: in vivo, human; details: for Hourly HCl output: 15 observations
From the text: as §2

H2 -receptors [13] = assay: Prevention of thidazine-induced gastric secretion by an H2 -antagonist; assay type: in vivo, dog; details: dogs, methiamide 30 mg/kg before thidazine 2 mg/kg intramuscular

H2 -ceptors, sequence (P17124 whole entry): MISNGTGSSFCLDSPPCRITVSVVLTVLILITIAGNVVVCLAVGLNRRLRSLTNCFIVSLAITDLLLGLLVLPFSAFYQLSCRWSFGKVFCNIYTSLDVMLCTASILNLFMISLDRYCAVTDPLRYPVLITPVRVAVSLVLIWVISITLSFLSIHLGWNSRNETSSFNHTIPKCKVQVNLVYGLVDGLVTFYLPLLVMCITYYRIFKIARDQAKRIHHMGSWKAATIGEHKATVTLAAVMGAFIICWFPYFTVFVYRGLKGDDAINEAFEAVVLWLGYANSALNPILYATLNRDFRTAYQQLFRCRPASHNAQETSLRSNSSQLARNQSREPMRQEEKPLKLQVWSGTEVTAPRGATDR

SMILES: NCCc1c[nH]cn1 [histamine, reference compound]
- production of maximum level of hydrochloric acid secretion in the stomach (H2 -ceptors): can produce a maximum level of hydrochloric acid secretion
- gastric secretion after administration per os (dog's stomach): no gastric secretion
- reduction of arterial pressure (arterial pressure [1]): 100 mm of mercury
- Free Acidity [2]: 81.7+21 units
- HCl Output [2]: 12+0.4 milliequivalents per hour
- Peak HCl Output [2]: 8.8+0.2 milliequivalents
- Total Acidity [2]: 92.0+23 units
- % of difference (fluctuations) of total acidity, first and second tests (total acidity): 0-53%
- Average difference of total acidity (total acidity): 33%
- Chymosin Output ([3]; 1st hour (basal secretion)): 16.0 ± 0.008 units per hour
- Pepsin Output ([3]; 1st hour (basal secretion)): 3.7 ± 1.2 units per hour
- Secretion, milliequivalents per hour ([3]; 1st hour (basal secretion)): 7.0 ± 1.2 Milliequivalents per hour
- Chymosin Output ([3]; 2nd hour): 16.4 ± 0.04 units per hour
- Pepsin Output ([3]; 2nd hour): 4.8 ± 3.0 units per hour
- Secretion, milliequivalents per hour ([3]; 2nd hour): 19.4 ± 1.6 Milliequivalents per hour
- Emax (H2 -receptors [4]): 100%
- secretory effect per os (gastric secretion [5]): no secretory effect is produced
- side effects ([6]; patients): reddening of the skin, nausea, vomiting, headache, dizziness, bronchospasm, edema of the rima vocalis, hypotension, and shocks
- reduction of arterial pressure (arterial pressure [7]): 40 mm of mercury

SMILES: Cc1[nH]cnc1CCN [5-methylhistamine]
- secretory effect per os (gastric secretion [5]): no secretory effect is produced

SMILES: NCCc1nnc(N)s1 [dihydrochloride of 2-amino-5-(2-aminoethyl)-1,3,4-thiadiazole]
- stability of aqueous solution [8]: stable over prolonged periods of time
- hygroscopicity ([8]; powder): poor hygroscopicity
- reaction (acidity) of solution ([8]; solutions before neutralization to pH 6 to 7): strongly acidic reaction
- solubility in water ([8]; water): readily soluble in water

SMILES: Cl.Cl.NCCc1c[nH]cn1 [Histamine dichloride, reference compound]
- dose for maximum secretion test (gastric secretion [9]): 0.025 mg/kg
- dose for submaximum secretion test (gastric secretion [9]): 0.008 mg/kg

SMILES: NCCc1cc[nH]n1 [histalog, 3-(5)-(2-aminoethyl)pyrazole, reference compound]
- production of maximum level of hydrochloric acid secretion in the stomach (H2 -ceptors): can produce a maximum level of hydrochloric acid secretion
- gastric secretion after administration per os (dog's stomach): no gastric secretion
- reduction of arterial pressure (arterial pressure [1]): 30 mm of mercury
- EC50 (H1 -receptors): 58.9 µM
- EC50 (H2 -receptors [10]): 15.8 µM
- dose for maximum secretion test (gastric secretion [9]): 1.7 mg/kg
- dose for submaximum secretion test (gastric secretion [9]): 0.9 mg/kg
- Emax (H2 -receptors [4]): 16%
- secretory response of the stomach (gastric secretion [5]; humans, parenteral, 1 to 5 mg/kg): maximum secretory response of the stomach
- secretory effect per os (gastric secretion [5]): no secretory effect is produced
- capability of stimulating gastric secretion, times less effective than histamine (gastric secretion [5]; relative to histamine): 70 times
- hypotensive effect, times as low as that of histamine [11]: 700 times
- side effects ([6]; in vivo): side effects are observed far less frequently than in the case of histamine

SMILES: CSCC[C@H](NC(=O)[C@H](Cc1c[nH]c2ccccc12)NC(=O)CCNC(=O)OC(C)(C)C)C(=O)N[C@@H](CC(=O)O)C(=O)N[C@@H](Cc1ccccc1)C(N)=O [pentagastrin, reference compound]
- HCl Concentration ([12]; 1st hour (basal secretion)): 35.3 milliequivalents per liter
- HCl Concentration ([12]; 2nd hour (response to drug)): 94.0 milliequivalents per liter
- Gastric Juice, Δ% ([12]; 2nd versus 1st hour): +63.7%
- Hourly HCl output, Δ% ([12]; 2nd versus 1st hour): +345.9%
- Hourly HCl output ([12]; 1st hour (basal secretion)): 3.7 milliequivalents per hour
- Hourly HCl output ([12]; 2nd hour (response to drug)): 16.5 milliequivalents per hour
- Gastric Juice ([12]; pentagastrin 6 mg/kg, 1st hour (basal secretion)): 106.3 ml per hour
- Gastric Juice ([12]; pentagastrin 6 mg/kg, 2nd hour (response to drug)): 174.0 ml per hour
- HCl Concentration, Δ% ([12]; pentagastrin 6 mg/kg, 2nd versus 1st hour): +166.3%
- Chymosin Output ([3]; 1st hour (basal secretion)): 157.3 ± 5.9 units per hour
- Pepsin Output ([3]; 1st hour (basal secretion)): 3.3 ± 0.8 units per hour
- Secretion, milliequivalents per hour ([3]; 1st hour (basal secretion)): 7.4 ± 0.8 Milliequivalents per hour
- Pepsin Output ([3]; 2nd hour): 19.3 ± 3.8 units per hour
- Secretion, milliequivalents per hour ([3]; 2nd hour): 24.8 ± 1.5 Milliequivalents per hour
- secretory effect per os (gastric secretion [5]): no secretory effect is produced
- duration of effect of a single dose (gastric secretion [5]; single dose): does not last long
- level of secretion (gastric secretion [5]; sufficient dose): can produce a maximum level of secretion
- side effects ([6]; patients): can produce allergic and anaphylactic reactions as a result of repeated administrations

SMILES: CNC(=S)NCCSCc1nc[nH]c1C [methiamide]
- prevention of thidazine secretory effect (H2 -receptors [13]): completely prevented
